Results on eleven molecules are retold here after ChEMBL document CHEMBL1156723, “Structure-activity relationship study on a novel series of cyclopentane-containing macrocyclic inhibitors of the hepatitis C virus NS3/4A protease leading to the discovery of TMC435350” (Bioorg Med Chem Lett, 2008).

Each structure is given as a SMILES string.

A short description of data set [1]: Inhibition of recombinant full length HCV NS3/4A protease. Details: species or system Hepacivirus hominis.
The test system of the next data set is Hepatitis C virus. Put plainly: Antiviral activity against HCV in human Huh7 cells assessed as luciferase activity. In kind it is functional, organism-based, Hepacivirus hominis. As to conditions: Huh-7.
Data set [2] can be described thus: Metabolic stability in human liver microsomes assessed as intrinsic clearance. In kind it is ADME, Microsome. On the technique in general: Microsomes from liver hold many membrane-bound enzymes, among them those of drug oxidation.
Data set [3] is described as follows: Clearance in Sprague-Dawley rat at 2 mg/kg, iv. Further details: dose 2 mg/kg, route intravenous. In kind it is ADME, organism-based. The settings on record: in vivo.
A short description of data set [4]: Volume of distribution at steady state in Sprague-Dawley rat at 2 mg/kg, iv. It counts as ADME, organism-based. Further details: dose 2 mg/kg, route intravenous. The settings on record: in vivo, read-out: Vdss.
The nature of data set [5]: AUC in Sprague-Dawley rat at 2 mg/kg, iv. In kind it is ADME, organism-based. Further details: dose 2 mg/kg, route intravenous. As to conditions: plasma.
The nature of data set [6]: Ratio of drug level in liver to plasma in Sprague-Dawley rat at 2 mg/kg, iv after 6 hrs. It counts as ADME, organism-based. Further details: dose 2 mg/kg, route intravenous.
The nature of data set [7]: AUC in Sprague-Dawley rat at 10 mg/kg, po. In kind it is ADME, organism-based. The settings on record: plasma. Details: dose 10 mg/kg, route oral.
Data set [8] is described as follows: Cmax in Sprague-Dawley rat at 10 mg/kg, po. It counts as ADME, organism-based. Details: dose 10 mg/kg, route oral. The settings on record: in vivo.
Data set [9] can be described thus: Tmax in Sprague-Dawley rat at 10 mg/kg, po. It counts as ADME, organism-based. Further details: dose 10 mg/kg, route oral. As to conditions: in vivo.
Data set [10] in a line: Half life in Sprague-Dawley rat at 10 mg/kg, po. It counts as ADME, organism-based. Details: dose 10 mg/kg, route oral. As to conditions: in vivo.
The nature of data set [11]: Oral bioavailability in Sprague-Dawley rat at 10 mg/kg, po. In kind it is ADME, organism-based. As to conditions: in vivo.
A short description of data set [12]: Ratio of drug level in liver to plasma in Sprague-Dawley rat at 10 mg/kg, po after 6 hrs. In kind it is ADME, organism-based. Further details: dose 10 mg/kg, route oral.
The nature of data set [13]: Ratio of drug level in liver to plasma in Sprague-Dawley rat at 2 mg/kg, iv after 8 hrs. In kind it is ADME, organism-based. Further details: dose 2 mg/kg, route intravenous.
A short description of data set [14]: Ratio of drug level in liver to plasma in Sprague-Dawley rat at 10 mg/kg, po after 8 hrs. It counts as ADME, organism-based. Details: dose 10 mg/kg, route oral.
Data set [15] is described as follows: Bile excretion of compound in rat at 1 mg/kg, iv after 1 hr. Further details: dose 1 mg/kg, route intravenous. The settings on record: read-out: Activity. In kind it is ADME, organism-based.
Another data set deals with Liver microsomes. Put plainly: Metabolic stability in rat liver microsomes assessed as intrinsic clearance. It counts as ADME, Microsome.

Consider `COc1ccc2c(O[C@@H]3C[C@H]4C(=O)N[C@]5(C(=O)NS(=O)(=O)C6CC6)C[C@H]5/C=C\CCCCN(C)C(=O)[C@@H]4C3)cc(-c3nc(C(C)C)cs3)nc2c1C` [SIMEPREVIR], for which, in [1], the inhibition constant Ki (usually the dissociation constant of the complex between target and ligand, obtained from inhibition or displacement) was 0.36 nM. For the same molecule, the concentration giving a half-maximal response (EC50) (commonly the midpoint of the concentration-response curve) with Hepatitis C virus is 7.8 nM. For the same molecule, in data set [2], the microsomal CLint – broadly, the capacity of the preparation to metabolise the compound, expressed as a volume cleared per time – was under 6 µL/min/mg. Also, in [3], the clearance was 8.42 mL/min/kg. For the same molecule, the Vd in [4] came to 0.49 L/kg. For the same molecule, the area under the curve (AUC) (as a rule, concentration integrated over time) in data set [5] was 5.21 µM·h; in [7], 2.79 µM·h. The Kp (as a rule, tissue or fluid exposure divided by exposure in the circulation) at 6 h in data set [6] worked out at 63.5; in data set [12] it was 32. Moreover, in data set [8], the peak level (Cmax) was 730 nM. Moreover, the Tmax (as a rule, the time from dosing to the highest level) in [9] was 3 h. Also, the half-life (usually the time in which the quantity being followed falls by half) in data set [10] was 2.8 h. In addition, in data set [11], the bioavailability – broadly, the share of a dose that reaches the circulation, judged against a reference dose that is usually intravenous – stood at 11%.

Turning to `COc1ccc2c(O[C@@H]3C[C@H]4C(=O)N[C@]5(C(=O)NS(=O)(=O)C6CC6)C[C@H]5/C=C\CCCCN(C)C(=O)[C@@H]4C3)cc(-n3ccc(C(C)C)n3)nc2c1C`, the Ki in data set [1] is 0.16 nM. Moreover, the EC50 with Hepatitis C virus was found to be 9.7 nM. Further, the microsomal CLint in data set [2] was under 6 µL/min/mg. The clearance in data set [3] is 41.7 mL/min/kg. Moreover, in data set [4], the Vd came to 4.6 L/kg. Further, the exposure (AUC) in data set [5] amounted to 1.05 µM·h; in [7], 1.3 µM·h. The partition ratio (Kp) at 8 h was determined as 23.5 in data set [13] and 44 in data set [14]. For the same molecule, in data set [8], the peak level (Cmax) was 310 nM. Also, the time of peak concentration (Tmax) in data set [9] is 1.5 h. The same molecule gave a half-life in [10] of 2.2 h. The bioavailability in [11] worked out at 25%.

Turning to `C=C[C@@H]1C[C@]1(NC(=O)[C@@H]1C[C@@H](Oc2cc(-c3ccccc3)nc3cc(OC)ccc23)C[C@H]1C(=O)N[C@H](C(=O)N[C@H](C(=O)NC)C1CCCCC1)C(C)(C)C)C(=O)O`, the Ki in [1] was 22 nM.

Take `COc1ccc2c(O[C@@H]3C[C@H]4C(=O)N[C@]5(C(=O)NS(=O)(=O)C6CC6)C[C@H]5/C=C\CCCCN(C)C(=O)[C@@H]4C3)cc(-c3nc(C(C)C)cs3)nc2c1`: in [1], the Ki was found to be 0.84 nM. Besides, in the data set on Hepatitis C virus, the EC50 came out at 17 nM. In addition, the microsomal CLint in data set [2] is 16 µL/min/mg.

With `COc1ccc2c(O[C@@H]3C[C@H]4C(=O)N[C@]5(C(=O)NS(=O)(=O)C6CC6)C[C@H]5/C=C\CCCCN(C)C(=O)[C@@H]4C3)cc(-c3ccccc3)nc2c1`, in data set [1], the inhibition constant (Ki) turned out to be 0.41 nM. Further, the concentration giving a half-maximal response (EC50) with Hepatitis C virus is 9 nM. The intrinsic metabolic clearance (microsomal CLint) in data set [2] is 46 µL/min/mg. The dose excreted at 1 h in data set [15] came out at 95%. Further, the clearance with Liver microsomes came to 46 µL/min/mg.

On to `COc1ccc2c(O[C@@H]3C[C@H]4C(=O)N[C@]5(C(=O)NS(=O)(=O)C6CC6)C[C@H]5/C=C\CCCCN(C)C(=O)[C@@H]4C3)cc(-c3nc(C(C)C)cs3)nc2c1F`, for which the inhibition constant (Ki) in data set [1] was 0.55 nM. Further, the concentration for a half-maximal effect (EC50) in the data set on Hepatitis C virus is 57 nM.

For the molecule `COc1ccc2c(O[C@@H]3C[C@H]4C(=O)N[C@]5(C(=O)NS(=O)(=O)C6CC6)C[C@H]5/C=C\CCCCN(C)C(=O)[C@@H]4C3)cc(-c3cccc(C(C)C)n3)nc2c1C`, the Ki in data set [1] was determined as 0.3 nM. Further, the EC50 in the data set on Hepatitis C virus amounted to 6.8 nM. For the same molecule, in data set [2], the microsomal CLint was under 6 µL/min/mg. Moreover, the clearance in data set [3] was 23.3 mL/min/kg. Moreover, the Vd in data set [4] came out at 0.7 L/kg. Besides, the results for the exposure (AUC) in data set [5] and in data set [7] were 1.36 µM·h and 1.4 µM·h, respectively. In [8], the Cmax – broadly, the maximum level reached in the sampled fluid or tissue – amounted to 300 nM. The Tmax in data set [9] worked out at 2 h. In data set [10], this molecule had a half-life of 5.8 h. In data set [11], this molecule returned a bioavailability of 31%.

Take `COc1ccc2c(O[C@@H]3C[C@H]4C(=O)N[C@]5(C(=O)NS(=O)(=O)C6CC6)C[C@H]5/C=C\CCCCN(C)C(=O)[C@@H]4C3)cc(-c3nc(C(C)C)cs3)nc2c1Cl`: the Ki in data set [1] is 0.1 nM. Further, the half-maximal effective concentration (EC50) in the data set with Hepatitis C virus came to 2.9 nM. For the same molecule, the intrinsic metabolic clearance (microsomal CLint) in data set [2] came to 9 µL/min/mg.

With `COc1ccc2c(O[C@@H]3C[C@H]4C(=O)N[C@]5(C(=O)NS(=O)(=O)C6CC6)C[C@H]5/C=C\CCCCN(C)C(=O)[C@@H]4C3)cc(-c3csc(NC(C)C)n3)nc2c1`, the Ki in [1] worked out at 1.4 nM. Besides, the EC50 with Hepatitis C virus was 17 nM. Moreover, in data set [2], the intrinsic metabolic clearance (microsomal CLint) worked out at 15 µL/min/mg.

Consider `COc1ccc2c(O[C@@H]3C[C@H]4C(=O)N[C@]5(C(=O)NS(=O)(=O)C6CC6)C[C@H]5/C=C\CCCCN(C)C(=O)[C@@H]4C3)cc(-c3nccs3)nc2c1`, for which the inhibition constant Ki in data set [1] was determined as 0.2 nM. Moreover, the half-maximal effective concentration (EC50) with Hepatitis C virus amounted to 11 nM. The intrinsic metabolic clearance (microsomal CLint) in [2] turned out to be 38 µL/min/mg.

As to `CCc1c(OC)ccc2c(O[C@@H]3C[C@H]4C(=O)N[C@]5(C(=O)NS(=O)(=O)C6CC6)C[C@H]5/C=C\CCCCN(C)C(=O)[C@@H]4C3)cc(-c3nc(C(C)C)cs3)nc12`, the Ki in data set [1] is 3.1 nM. Further, the half-maximal effective concentration (EC50) with Hepatitis C virus amounted to 66 nM.
